Assay results reported in paper PMC7044277 (Nature Communications, 2020).
Several values for one entry are separate records, joined by “and”; a condition that tells them apart may be missing. Identical values can stand only once.

How the values were obtained:
DRD4 (D4.4 variant) [1] = biological target: T1, DRD4 (D4.4 variant) (Homo sapiens, UniProt P21917); test: β-arrestin2 recruitment (Tango); type: cell-based
T1 sequence (P21917 1-419): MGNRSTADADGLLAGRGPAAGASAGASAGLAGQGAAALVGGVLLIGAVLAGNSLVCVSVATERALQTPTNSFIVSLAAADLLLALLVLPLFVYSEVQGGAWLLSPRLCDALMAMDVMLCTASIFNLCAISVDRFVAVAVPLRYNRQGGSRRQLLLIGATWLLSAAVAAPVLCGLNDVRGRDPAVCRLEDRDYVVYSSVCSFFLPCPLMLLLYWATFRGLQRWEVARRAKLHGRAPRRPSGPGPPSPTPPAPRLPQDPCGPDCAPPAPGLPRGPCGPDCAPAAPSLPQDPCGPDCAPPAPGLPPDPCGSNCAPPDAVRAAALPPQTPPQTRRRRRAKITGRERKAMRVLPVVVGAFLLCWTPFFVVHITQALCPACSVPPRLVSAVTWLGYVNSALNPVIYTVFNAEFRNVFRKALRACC

[2] = biological target: T2, DRD4 (D4.4 variant) wild-type (Homo sapiens, UniProt P21917); test: Radioligand competition binding, [3H]-N-methylspiperone; conditions: DRD4; [3H]-methylspiperone (0.8-1.0 nM); read-out: Ki
T2 sequence (P21917 1-419): T1 sequence (P21917 1-419)

DRD4 (D4.4 variant) [3] = biological target: T1, DRD4 (D4.4 variant); test: Gαi/o-mediated cAMP inhibition (GloSensor); type: cell-based; conditions: DRD4; agonist, cAMP inhibition; read-out: EC50 ± SEM
DRD3 F1063.28A = DRD3 F1063.28A (Homo sapiens, UniProt P35462, F106A); test: biochemical; type: binding
DRD3 F1063.28A, sequence (P35462 whole entry F106A): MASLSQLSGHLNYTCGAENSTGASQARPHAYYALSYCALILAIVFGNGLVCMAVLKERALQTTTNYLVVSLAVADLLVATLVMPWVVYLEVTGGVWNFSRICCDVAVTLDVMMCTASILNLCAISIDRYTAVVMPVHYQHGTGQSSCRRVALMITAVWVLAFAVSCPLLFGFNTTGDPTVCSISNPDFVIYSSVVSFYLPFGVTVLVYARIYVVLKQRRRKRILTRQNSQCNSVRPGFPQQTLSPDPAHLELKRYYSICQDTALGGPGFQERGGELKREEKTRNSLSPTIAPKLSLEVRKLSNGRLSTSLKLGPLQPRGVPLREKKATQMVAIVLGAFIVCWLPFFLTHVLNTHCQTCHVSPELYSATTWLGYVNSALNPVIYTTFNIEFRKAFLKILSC

DRD2 (D2 long receptor) = DRD2 (D2 long receptor) (Homo sapiens, UniProt P14416); test: Gαi/o-mediated cAMP inhibition (GloSensor split-luciferase cAMP reporter), HEK293T; type: cell-based; conditions: DRD2;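 note: compounds applied 15 min at room temperature, then luciferin plus 400 nM isoproterenol to raise cAMP through endogenous β2-adrenergic receptors, luminescence read 15 min later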
DRD2 (D2 long receptor), sequence (P14416 whole entry): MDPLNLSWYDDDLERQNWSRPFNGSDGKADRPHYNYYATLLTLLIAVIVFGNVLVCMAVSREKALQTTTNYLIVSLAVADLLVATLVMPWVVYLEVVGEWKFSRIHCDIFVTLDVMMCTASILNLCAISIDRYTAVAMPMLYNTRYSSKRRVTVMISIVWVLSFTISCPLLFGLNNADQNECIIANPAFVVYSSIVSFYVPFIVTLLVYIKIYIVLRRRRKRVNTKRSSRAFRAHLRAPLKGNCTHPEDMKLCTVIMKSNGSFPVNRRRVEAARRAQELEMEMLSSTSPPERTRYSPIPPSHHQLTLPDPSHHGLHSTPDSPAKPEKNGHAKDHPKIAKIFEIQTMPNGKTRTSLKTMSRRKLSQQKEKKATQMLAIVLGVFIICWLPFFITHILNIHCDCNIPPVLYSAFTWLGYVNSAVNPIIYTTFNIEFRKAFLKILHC

DRD2 F1103.28A = DRD2 F1103.28A (Homo sapiens, UniProt P14416, F110A); test: Gαi/o-mediated cAMP inhibition (GloSensor), mutant; type: cell-based; parameters: expressed in transfected cells; host or cells: HEK293T (ATCC CRL-11268)
DRD2 F1103.28A, sequence (P14416 whole entry F110A): as the sequence (P14416 whole entry) above, with F110A counted along it

[4] = tested on: serotonin receptor (subtype not given; reference agonist serotonin); test: β-arrestin2 recruitment (Tango), agonist activity, source data Fig_S10l; type: cell-based, human; conditions: drug alone
5HT1E = 5HT1E (Homo sapiens, UniProt P28566); test: β-arrestin2 recruitment (Tango); type: cell-based; conditions: Fig_S10i
5HT1E, sequence (P28566 whole entry): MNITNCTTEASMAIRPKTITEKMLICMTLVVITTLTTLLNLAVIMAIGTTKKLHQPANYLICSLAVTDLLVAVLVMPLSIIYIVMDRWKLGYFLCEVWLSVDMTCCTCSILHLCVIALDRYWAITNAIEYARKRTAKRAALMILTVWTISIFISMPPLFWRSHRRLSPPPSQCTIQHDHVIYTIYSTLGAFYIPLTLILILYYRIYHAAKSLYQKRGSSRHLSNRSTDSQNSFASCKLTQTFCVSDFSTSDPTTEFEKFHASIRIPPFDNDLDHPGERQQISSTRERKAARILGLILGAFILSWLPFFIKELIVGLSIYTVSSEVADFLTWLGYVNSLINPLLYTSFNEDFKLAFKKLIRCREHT

CCOc1cccc2cc([C@@H](C)NCC3(O)CCCCC3)oc12 [O4RE6]
β-arrestin2 recruitment response at DRD4 (source data, replicate values) (DRD4 (D4.4 variant) [1]; Log[Drug] -10.52): 2.403 | β-arrestin2 recruitment response at DRD4 (source data, replicate values) (DRD4 (D4.4 variant) [1]; Log[Drug] -11): 4.161 and -1.784 and -1.43 and 0.349 and 0.8023 and -0.5301 and 2.686 and -0.07952 and -0.04373 | β-arrestin2 recruitment response at DRD4 (source data, replicate values) (DRD4 (D4.4 variant) [1]; Log[Drug] -11.52): 0.6452 and -1.9266 and -1.439 and -0.7995 and -0.6204 and 1.59 and -0.483 and -0.008444 and -0.04903 | Ki [2]: > 10000 nM | EC50 (DRD4 (D4.4 variant) [3]): > 10000 nM | Ki (DRD3 F1063.28A): 1050 nM | EC50 (DRD2 (D2 long receptor); agonist, Gαi/o-mediated cAMP inhibition, read-out: EC50 ± SEM): 0.45 ± 0.05 nM | G protein agonist activity (DRD2 (D2 long receptor); cAMP inhibition): full agonist | Emax (DRD2 (D2 long receptor); HEK-293T, read-out: Emax relative to quinpirole response, cAMP inhibition): 94.5% | EC50 (DRD2 F1103.28A): > 10000 nM | response, Fig_S10l, replicate values ([4]; Log[Drug] -6.52): -3.85 | response, Fig_S10l, replicate values ([4]; Log[Drug] -7): -18.1455 and -1.053 and 5.44 and -6.097 and -0.7764 and -1.627 and 21.5386 and -8.446 and -23.0116 | response, Fig_S10l, replicate values ([4]; Log[Drug] -7.52): 10.4314 and -7.0535 and -12.5511 and -5.4086 and -2.507 and -5.8801 and -14.9973 and 5.012 and -22.748 | response, Fig_S10l, replicate values ([4]; Log[Drug] -8): -3.494 and -0.9897 and -1.101 and -6.133 and 9.37 and -6.103 and -6.764 and -19.0522 and -18.9699 | response, Fig_S10l, replicate values ([4]; Log[Drug] -8.52): -14.6079 and -9.137 and 0.1161 and -2.858 and 0.4788 and -6.718 and 5.642 and 9.781 and -19.7014 | response, Fig_S10l, replicate values ([4]; Log[Drug] -9): -7.429 and -0.8033 and 2.514 and -1.371 and -2.511 and 6.172 and -12.5406 and 13.3677 and 9.079 | response, Fig_S10l, replicate values ([4]; Log[Drug] -9.52): -7.024 and -4.6241 and 4.382 and 5.183 and -6.777 and -3.91 and -13.0464 and 1.094 and -1.351 | response, Fig_S10l, replicate values ([4]; Log[Drug] -10): -1.517 and -3.218 and -6.7099 and 1.544 and 10.647 and -1.892 and 3.1372 and 12.1979 and 15.1176 | response, Fig_S10l, replicate values ([4]; Log[Drug] -10.52): 7.131 and -7.271 and -11.3727 and 2.195 and -7.95 and -8.5307 and 3.862 and 0.6607 and 18.5102 | response, Fig_S10l, replicate values ([4]; Log[Drug] -11): 7.402 and 9.101 and -6.117 and -2.283 and 7.1162 and 16.1339 and -5.988 and 21.1185 and -1.691 | response, Fig_S10l, replicate values ([4]; Log[Drug] -11.52): 20.0426 and 4.341 and -34.8779 and 9.958 and -2.256 and -5.643 and 0.02142 and 3.842 and -14.699 | response, Fig_S10l, replicate values ([4]; Log[Drug] -12): 1.452 and 8.392 and -9.8386 and -3.912 and 6.115 and -2.202 and -0.8107 and 10.4431 and -9.6291 | β-arrestin2 recruitment response, agonist mode (single replicate values) (5HT1E; Log[Drug] -5.52): -0.8838 | β-arrestin2 recruitment response, agonist mode (single replicate values) (5HT1E; Log[Drug] -6): 5.169 and -3.421 and -7.045 and -2.335 and -9.923 and 2.004 and -14.6813 and -14.4526 and -10.0186 | β-arrestin2 recruitment response, agonist mode (single replicate values) (5HT1E; Log[Drug] -6.52): 5.136 and -8.797 and -1.582 and 6.94 and -5.772 and 9.5977 and -9.147 and -14.4969 and -14.6019 | β-arrestin2 recruitment response, agonist mode (single replicate values) (5HT1E; Log[Drug] -7): -9.403 and -3.356 and -7.031 and 6.361 and -8.019 and 5.611 and -6.317 and -9.482 and -17.1569 | β-arrestin2 recruitment response, agonist mode (single replicate values) (5HT1E; Log[Drug] -7.52): -7.7314 and -4.654 and -9.0776 and 5.71 and 2.776 and -4.782 and -16.2446 and -11.396 and -8.341 | β-arrestin2 recruitment response, agonist mode (single replicate values) (5HT1E; Log[Drug] -8): -0.303 and 2.682 and 0.8105 and -16.5035 and -1.474 and 1.2682 and -16.075 and -2.697 and -15.9171 | β-arrestin2 recruitment response, agonist mode (single replicate values) (5HT1E; Log[Drug] -8.52): -6.877 and -0.9842 and -10.6793 and 4.799 and 9.189 and -4.891 and 2.59 and -7.1 and -6.491 | β-arrestin2 recruitment response, agonist mode (single replicate values) (5HT1E; Log[Drug] -9): -3.28 and 6.173 and 0.4053 and -14.2337 and -0.6567 and 5.487 and -22.7397 and -14.6836 and -5.277 | β-arrestin2 recruitment response, agonist mode (single replicate values) (5HT1E; Log[Drug] -9.52): -0.2537 and -8.594 and -3.456 and -0.4529 and -8.792 and -9.322 and -17.3288 and -4.524 and -7.744 | β-arrestin2 recruitment response, agonist mode (single replicate values) (5HT1E; Log[Drug] -10): -3.52 and -2.38 and 3.183 and -31.9257 and 29.8123 and -9.337 and -10.0295 and -4.283 and -12.1769 | β-arrestin2 recruitment response, agonist mode (single replicate values) (5HT1E; Log[Drug] -10.52): 0.1347 and 0.5117 and -4.0638 and -13.472 and -7.0659 and -13.7571 and -9.427 and -7.368 and -17.0465 | β-arrestin2 recruitment response, agonist mode (single replicate values) (5HT1E; Log[Drug] -11): 7.882 and 2.36 and 5.579 and -8.103 and -1.831 and -9.017 and -8.127 and -1.8482 and -12.9803
